Reference: patent EP0418591B1 (priority 1989, dated 1991)
Where two headings read alike, the source gives them in different places. Marks after values point to notes of the source that are not given here.

Legend:
Cough in Guinea Pigs = test system: Cough in Guinea Pigs; set-up: species or system Dunkin Hartley guinea pigs; conditions: guinea pig, in vivo
Mu opiate binding sites = target: T1, Mu opiate binding sites (Rattus norvegicus, UniProt P33535); set-up: species or system Sprague-Dawley rats
T1 construct: from tissue; host or cells: rat brain minus cerebellum, twice-washed P2 membrane fraction
T1 sequence (P33535 whole entry): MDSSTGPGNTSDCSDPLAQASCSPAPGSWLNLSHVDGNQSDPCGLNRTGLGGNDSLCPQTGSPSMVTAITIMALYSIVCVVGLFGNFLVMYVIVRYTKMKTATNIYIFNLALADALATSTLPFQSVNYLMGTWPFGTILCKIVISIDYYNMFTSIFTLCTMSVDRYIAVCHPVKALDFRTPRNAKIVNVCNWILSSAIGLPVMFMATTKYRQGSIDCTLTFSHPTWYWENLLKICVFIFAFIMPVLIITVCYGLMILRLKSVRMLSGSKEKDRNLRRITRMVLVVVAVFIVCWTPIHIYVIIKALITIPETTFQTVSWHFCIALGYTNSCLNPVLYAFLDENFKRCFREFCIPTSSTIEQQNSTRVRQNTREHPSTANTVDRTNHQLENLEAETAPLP

[1] = target: T2, Delta opiate binding sites (Rattus norvegicus, UniProt P33533); set-up: species or system Sprague-Dawley rats
T2 construct: from tissue; host or cells: rat brain minus cerebellum, twice-washed P2 membrane fraction
T2 sequence (P33533 whole entry): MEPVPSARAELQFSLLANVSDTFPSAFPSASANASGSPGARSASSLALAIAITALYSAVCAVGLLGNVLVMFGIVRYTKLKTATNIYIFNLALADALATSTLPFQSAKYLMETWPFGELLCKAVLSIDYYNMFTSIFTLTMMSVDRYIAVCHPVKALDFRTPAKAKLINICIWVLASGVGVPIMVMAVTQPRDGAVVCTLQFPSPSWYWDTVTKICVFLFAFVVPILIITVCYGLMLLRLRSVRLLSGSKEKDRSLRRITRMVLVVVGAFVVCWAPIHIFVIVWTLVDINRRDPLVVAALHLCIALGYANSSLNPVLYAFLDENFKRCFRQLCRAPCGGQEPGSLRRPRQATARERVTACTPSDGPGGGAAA

Structure (SMILES) | inhibition of cough (Cough in Guinea Pigs) [%] | % Inhibition of Coughing 5 min (Cough in Guinea Pigs; po) | % Inhibition of Coughing 10 min (Cough in Guinea Pigs; po) | % Inhibition of Coughing 5 min (Cough in Guinea Pigs; sc) | % Inhibition of Coughing 10 min (Cough in Guinea Pigs; sc) | IC50 (Mu opiate binding sites; read-out: IC₅₀ Mu) [nM] | Ki (Mu opiate binding sites; read-out: Ki Mu) [nM] | IC50 ([1]; read-out: IC₅₀ Delta) [nM] | Ki ([1]; read-out: Ki Delta) [nM]
COc1ccc2c3c1O[C@H]1[C@@H](O)C=C[C@H]4[C@@H](C2)N(C)CC[C@@]341 [(-)-codeine] | 46 | 42.7*** % | 38.7*** % | 46.2*** % | 46.1*** % | – | – | – | –
CC(C)C[C@H](NC(=O)[C@H](Cc1ccccc1)NC(=O)CNC(=O)[C@H](NC(=O)[C@@H](N)Cc1ccc(O)cc1)[C@H](C)O)C(=O)N[C@H](C(=O)O)[C@@H](C)O [DTLET, D-Thr²-Leu-Enkephalin-Thr] | – | – | – | – | – | 184 | 105 | 2.7 | 1.2
